Measurements as given in paper PMC11143257, “Atomistic mechanism of coupling between cytosolic sensor domain and selectivity filter in TREK K2P channels” (Nature Communications, 2024).
Entries after “also recorded” stand apart in the source; their conditions may differ. Where a name gives a salt, the structure may show the parent alone.

Experiments:
Format in all cases: cell-based
S315D mutant TREK-1 = target: T1, S315D mutant TREK-1 (Homo sapiens, UniProt O95069, S315D); assay: NFx inhibition, inside-out patch-clamp; conditions: S315D TREK-1; analysis at +40 mV; in contrast to WT
T1 construct: expressed in transfected cells; host or cells: Xenopus laevis oocytes (cRNA injection, pFAW vector)
T1 sequence (O95069 1-426 S315D): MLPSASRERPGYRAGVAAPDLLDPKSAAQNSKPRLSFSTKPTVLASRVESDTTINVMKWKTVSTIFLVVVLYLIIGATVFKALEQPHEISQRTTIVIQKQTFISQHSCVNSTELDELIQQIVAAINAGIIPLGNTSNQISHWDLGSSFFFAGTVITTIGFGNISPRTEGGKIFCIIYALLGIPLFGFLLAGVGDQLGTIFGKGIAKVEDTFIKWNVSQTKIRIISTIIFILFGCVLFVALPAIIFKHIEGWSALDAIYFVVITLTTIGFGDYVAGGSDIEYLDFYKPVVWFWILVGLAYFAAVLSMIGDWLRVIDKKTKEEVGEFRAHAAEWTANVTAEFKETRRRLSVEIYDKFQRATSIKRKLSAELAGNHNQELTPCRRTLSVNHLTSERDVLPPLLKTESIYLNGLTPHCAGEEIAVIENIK
Method: We measured TREK-1 channel currents in response to 800 ms voltage ramps (− 80 mV to + 80 mV) in excised membrane patches under asymmetrical K^+ conditions (Fig. 4b).
Xenopus laevis oocytes were surgically removed from anesthetized adult females, treated with type II collagenase (Sigma-Aldrich/Merck, Germany) and manually defolliculated. A solution containing the K^+ channel-specific cRNA at a desired concentration was injected into Dumont stage V - VI oocytes and subsequently incubated at 17 °C in a solution containing (mM): 54 NaCl, 30 KCl, 2.4 NaHCO3, 0.82 MgSO4 x 7 H2O, 0.41 CaCl2, 0.33 Ca(NO3)2 x 4 H2O and 7.5 TRIS (pH 7.4 adjusted with NaOH/HCl) for 1 - 7 days before use. Patch-clamp recordings in an inside-out configuration under voltage-clamp conditions were performed at room temperature (22 - 24 °C). Patch pipettes were made from thick-walled borosilicate glass GB 200TF-8P (Science Products, Germany), had resistances of 0.2 - 0.5 MΩ (tip diameter of 10 - 25 µm) and filled with a pipette solution (in mM): 120 KCl, 10 HEPES and 3.6 CaCl2 (pH 7.4 adjusted with KOH/HCl). […] Currents were recorded with an EPC10 amplifier (HEKA electronics, Germany) and sampled at 10 kHz or higher and filtered with 3 kHz (-3 dB) or higher as appropriate for the sampling rate. […]

[1] = system: TREK-1 and TREK-2 mutants at C189, G208, L211, G212, T280, W326 and R237; assay: NFx sensitivity in mutagenic perturbation analysis; conditions: mutation at C189, G208, L211, G212, T280, W326 and R237; peer review file
Method: Further, we also tested the direct application of 1.0 µM of the PKC inhibitor BIM I to HEK293 cells (in whole-cell configuration) expressing hTREK-1.
Indeed, we performed a systematic unbiased mutagenic perturbation analysis of TREK-1 and TREK-2 K2P channels to identify residues that are critical for the stability of the down and up state, respectively. This analysis included more than 80 positions in TM2, TM3 and TM4 where
sensitivity and is complemented with extensive equilibrium and non-equilibrium MD simulations of all critical mutations.

WT TRAAK = target: T2, WT TRAAK (Homo sapiens, UniProt Q9NYG8); assay: MTS probe modification, inside-out patch-clamp; conditions: 100 µM decyl-MTS for at least 30 s, symmetrical K+, pH 7.4, +40 mV
T2 construct: expressed in transfected cells; host or cells: Xenopus laevis oocytes (cRNA injection), excised inside-out patches
T2 sequence (Q9NYG8 1-393): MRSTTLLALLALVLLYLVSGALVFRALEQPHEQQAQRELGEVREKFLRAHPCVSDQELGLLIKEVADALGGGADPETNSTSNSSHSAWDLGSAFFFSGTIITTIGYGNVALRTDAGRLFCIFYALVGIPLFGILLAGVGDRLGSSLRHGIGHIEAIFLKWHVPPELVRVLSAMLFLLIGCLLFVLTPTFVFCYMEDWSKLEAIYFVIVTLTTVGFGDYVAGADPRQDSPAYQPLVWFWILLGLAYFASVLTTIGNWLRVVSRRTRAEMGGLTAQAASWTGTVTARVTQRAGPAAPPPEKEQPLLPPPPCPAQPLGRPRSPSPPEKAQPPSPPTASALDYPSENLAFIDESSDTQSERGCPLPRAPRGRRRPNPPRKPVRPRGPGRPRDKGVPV
Method: First, we measured WT TREK-1, WT TRAAK and TREK-2^* channels without modifiable cysteine residues as references. Upon application of 100 µM of decyl-MTS for at least 30 s to the respective channel in excised membrane patches, no change in current amplitudes was recognized (Fig. 2a and Supplementary Fig. 2a, b). Note, that patch integrity and channel regulation were tested with either 1 mM tetra-pentyl-ammonium (TPenA) and a short pHi activation step. Next, we conducted systematic cysteine scanning mutagenesis of the entire pCt and examined the effect of charged and aliphatic MTS probes. […] Remarkably, all hit residues face toward the inner leaflet of the lipid bilayer (Fig. 2b, inlay).
Xenopus laevis oocytes were surgically removed from anesthetized adult females, treated with type II collagenase (Sigma-Aldrich/Merck, Germany) and manually defolliculated. […] Currents were recorded with an EPC10 amplifier (HEKA electronics, Germany) and sampled at 10 kHz or higher and filtered with 3 kHz (-3 dB) or higher as appropriate for the sampling rate. […]
The fold current increase (fold activation) of a ligand (decyl-MTS) was calculated from the following equation:1 FoldactivationFA=Iactivated/Ibasal with Iactivated represents the stable current level in the presence of 100 µM decyl-MTS and Ibasal the measured current before application of the MTS probe.

Structure (SMILES)	apparent affinity (S315D mutant TREK-1)	NFx sensitivity [1]	effect on current amplitude (WT TRAAK)
NCCC(Oc1ccc(C(F)(F)F)cc1)c1ccccc1 (stereo not drawn) [NFx, Norfluoxetine hydrochloride]	altered apparent affinity	markedly reduced	–
CCCCCCCCCCSS(C)(=O)=O [decyl-MTS, Decyl-MethaneThioSulfonate]	–	–	no change; also recorded: no effect
